One data set has as its system HBsAg. Description: HBsAg inhibition in HepG2.2.15 culture supernatant (ELISA). Format: cell-based, HBV. The note with it: Hepatitis B virus, HepG2.2.15, 192 h, read-out: Activity in HBsAg inhibition, EC50. Here is the method:
Test method: HepG2.2.15 cell line was seeded into 96-well plates at 1.5×10^4 cells/well. On the following day, the cells were treated with a three-fold serial dilution series of the compounds at eight concentration points, and 2 duplicate wells were determined in parallel. The final DMSO concentration in the culture solution was 0.5%. On the fifth day, the culture solution was replaced with fresh solution containing the compounds. On the eighth day, the culture supernatant was collected and the HBsAg in the culture supernatant was detected by ELISA. The percent inhibition was calculated with respect to the blank control.
On the technique in general: In an ELISA, binding on a coated surface is turned into a signal by an enzyme label.

The nature of data set [1]: Rat PK study (single IV and PO dose, plasma LC-MS/MS). Format: in vivo, S-D rats. The note with it: for F / AUC(0-t) / clearance / half-life / Vd / Cmax / Tmax: S-D rats; for F: PO 10 mg/kg vs IV 2 mg/kg; for AUC(0-t) / clearance / half-life / Vd / Cmax / Tmax: Sprague-Dawley (S-D), rat, plasma; for Vd: read-out: Vdss; for PK properties (overall judgement): combining PK data of IV and PO. Here is the method:
Preparation of intravenous injection formulation: accurately weighing 2-3 mg of a sample, adding appropriate amount of N,N-dimethylacetamide (DMA), vortex oscillating to completely dissolve the solid matter; adding an appropriate volume of 30% Solutol HS-15 aqueous solution, vortex oscillating and then adding saline, so that DMA: 30% Solutol HS-15:saline=20:20:60 (v/v/v), vortex oscillating the liquid to mix the liquid evenly, and filtering to obtain a pharmaceutical preparation of a concentration of 0.4 mg·mL^−1.
Preparation of oral formulation: accurately weighing 10 mg of a sample, adding an appropriate volume of 0.5% CMC-Na aqueous solution, vortex oscillating and ultrasounding to mix the liquid evenly to obtain a pharmaceutical preparation of a concentration of 1 mg·mL^−1.
The formulations were freshly prepared on the day of administration, and samples were reserved and taken for the determination of the actual concentration.
S-D rats of Group A were given a single intravenous injection (IV) of 2 mg·kg^−1, respectively; S-D rats of Group B were given a single gavage administration (PO) of 10 mg·kg^−1, respectively. Approximately 0.15 mL of blood sample will was collected via jugular vein into EDTA-K2 tubes at the designated time points of pre-dose, and 5 min (IV only), 15 min, 30 min, 1 h, 2 h, 4 h, 8 h, 12 h and 24 h post dose. All of the whole blood samples were centrifuged for 10 min (at 5500 rpm) to obtain plasma samples, which were stored at a refrigerator below −30˜−10° C. Concentrations of compounds in the plasma samples were analyzed using a LC-MS/MS method. The pharmacokinetic parameters were calculated using non-compartment model in Pharsight Phoenix 7.0 software. See Tables 2a and 2b for the results.

Turning to `COc1cc2c(cc1O[C@H]1C[C@H](OC)C1)C[C@@H](C(C)C)n1cc(C(=O)O)c(=O)cc1-2` [Compound I-5, (S)-6-isopropyl-10-methoxy-9-((1R,3S)-3-methoxycyclobutoxy)-2-oxo-6,7-dihydro-2H-pyrido[2,1-α]isoquinoline-3-carboxylic acid], the EC50 – broadly, the concentration that produces a half-maximal response – with HBsAg amounted to 1.61 nM. In data set [1], the F was 37.7% and the “PK properties (overall judgement)” value is “good PK properties”. Moreover, in data set [1] (IV 2 mg/kg), the AUC(0-t) (in general, the area under the concentration-time curve up to a stated or last time point) was found to be 2940 ng·h/mL; the clearance was determined as 11.3 mL/min/kg; the half-life (in general, the time needed for the level to fall by half in the phase considered) was 0.98 h; the Vd turned out to be 0.858 L/kg. Also, in data set [1] (PO 10 mg/kg), the AUC(0-t) was 5500 ng·h/mL; the Cmax (usually the maximum level reached in the sampled fluid or tissue) is 1340 ng/mL; the Tmax – broadly, the time at which the peak concentration occurs – was determined as 0.5 h; the half-life is 1.7 h.

On to `COCCCOc1cc2c(cc1OC)-c1cc(=O)c(C(=O)O)cn1[C@H](C(C)C)C2` [A, reference compound], for which the EC50 in the data set on HBsAg amounted to 4.06 nM. The compound further returned a F in data set [1] of 21.5%. In data set [1] (IV 2 mg/kg), the AUC(0-t) turned out to be 1610 ng·h/mL, the clearance came to 20.8 mL/min/kg, the half-life was 0.94 h and the Vd stood at 1.17 L/kg. In data set [1] (PO 10 mg/kg), the AUC(0-t) came out at 1760 ng·h/mL, the highest concentration (Cmax) stood at 475 ng/mL, the Tmax was found to be 2.2 h and the half-life is 1.5 h.

Turning to `COc1cc2c(cc1OCCCC(C)=O)C[C@@H](C(C)C)n1cc(C(=O)O)c(=O)cc1-2` [Compound I-9, (S)-6-isopropyl-10-methoxy-2-oxo-9-((4-oxopentyl)oxy)-6,7-dihydro-2H-pyrido[2,1-α]isoquinoline-3-carboxylic acid], the EC50 in the data set with HBsAg worked out at 3.26 nM. The same compound gave a F in data set [1] of 4.3%. In addition, in data set [1] (IV 2 mg/kg), the AUC(0-t) is 504 ng·h/mL, the clearance worked out at 65.9 mL/min/kg, the half-life is 0.29 h and the Vd worked out at 0.942 L/kg. Besides, in data set [1] (PO 10 mg/kg), the AUC(0-t) is 105 ng·h/mL, the highest level (Cmax) was 79.9 ng/mL, the Tmax came to 0.33 h and the half-life was 1.8 h.

Consider `COc1cc2c(cc1OCC1CC(OC)C1)C[C@@H](C(C)C)n1cc(C(=O)O)c(=O)cc1-2` (stereo partly drawn) [Compound I-8, (S)-6-isopropyl-10-methoxy-9-((3-methoxycyclobutyl)methoxy)-2-oxo-6,7-dihydro-2H-pyrido[2,1-α]isoquinoline-3-carboxylic acid], for which the EC50 in the data set with HBsAg is 1.54 nM. For the same compound, in data set [1], the F is recorded as 27.1% and the “PK properties (overall judgement)” value was “good PK properties”. Besides, in data set [1] (IV 2 mg/kg), the AUC(0-t) stood at 2150 ng·h/mL, the clearance amounted to 15.7 mL/min/kg, the half-life was 0.89 h and the Vd was 1.05 L/kg. In addition, in data set [1] (PO 10 mg/kg), the AUC(0-t) is 3030 ng·h/mL, the concentration peaked (Cmax) at 739 ng/mL, the Tmax turned out to be 0.92 h and the half-life is 1.3 h.

As for `COc1cc2c(cc1O[C@@H]1CCOC1)C[C@@H](C(C)C)n1cc(C(=O)O)c(=O)cc1-2` [Compound I-2, (S)-6-isopropyl-10-methoxy-2-oxo-9-(((R)-tetrahydrofuran-3-yl)oxy)-6,7-dihydro-2H-pyrido[2,1-α]isoquinoline-3-carboxylic acid], the EC50 in the data set with HBsAg was 1.82 nM. Further, in data set [1], the F amounted to 18.9% and the “PK properties (overall judgement)” value is “good PK properties”. In addition, in data set [1] (IV 2 mg/kg), the AUC(0-t) was 1800 ng·h/mL, the clearance amounted to 18.6 mL/min/kg, the half-life is 1.8 h and the Vd came out at 1.51 L/kg. In data set [1] (PO 10 mg/kg), the AUC(0-t) turned out to be 1690 ng·h/mL, the Cmax came to 437 ng/mL, the Tmax is 1.2 h and the half-life is 1.6 h.
